From patent US20260183253A1, “TREATING LIVER CANCERS WITH HYDROXYUREAMETHYL ACYLFULVENE” (Lantern Pharma Inc., priority 2023, published 2026)

Test system: liver cancer cell lines including SNU387, SNU475, SNU449, and HEPG2
Experiment: Cell viability, CellTiter-Fluor assay, 72 h treatment
Assay type: cell-based
Conditions: values shown only in FIG. 1
Procedure: Liver cancer cell lines including SNU387, SNU475, SNU449, and HEPG2, were obtained from the American Type Culture Collection (ATCC), ensuring standardized and reliable cell sources. […] Cells were seeded into 96-well plates at a density optimized for exponential growth, allowing sufficient space for cellular proliferation during the course of the experiment. Each well was seeded with an equal number of cells to ensure consistency across the experiment. Following seeding, cells were allowed to adhere and acclimatize for 24 hours at 37° C. in a humidified incubator with 5% CO2, maintaining optimal growth conditions. Once acclimated, the cells were treated with either a vehicle control (DMSO) or varying concentrations of LP-184. […]
Following the 72-hour treatment period, cell viability was assessed using the CellTiter-Fluor® assay from Promega, a sensitive fluorescence-based assay that quantifies the number of viable cells based on the presence of active cellular proteases. […]
The plates were then incubated for an additional 30 minutes at 37° C. to allow the enzymatic reaction to occur, resulting in the cleavage of the fluorogenic substrate by viable cells. […] The fluorescence signal was measured using a plate reader set to an excitation wavelength of 400 nm and an emission wavelength of 505 nm, parameters optimized for the GF-AFC substrate. […]

IC50 (nM) against various liver cancer cell lines: nanomolar potency
Structure (SMILES): CC1=C(CN(O)C(N)=O)C2=C(C)C3(CC3)[C@@](C)(O)C(=O)C2=C1 [LP-184, (−)-hydroxyureamethyl acylfulvene]
